From patent US5229379A, “Certain N-substituted-amino-alkane phosphinic acid derivatives having anti-epileptic properties” (priority 1990, dated 1993) come the findings set out here.

For assay [1], the system named is "spike and wave" discharges induced by carbamazepine in epileptic rats. Kind of assay: Antagonism of the spike and wave discharges induced by carbamazepine in epileptic rats. The class given is in vivo, rat. How it is done: (§1) The method and test arrangement correspond to those of Pharmacological Example 1.
3-Aminopropyl(diethoxymethyl)phosphinic acid: Antagonism of the "spike and wave" discharges induced by carbamazepine. 3-Aminopropyl(diethoxymethyl)phosphinic acid was administered at time 0, and 20 mg/kg of carbamazepine were administered at time 40, in each case i.p..

Assay [2] concerns "spike and wave" discharges induced by phenytoin in epileptic rats. Kind of assay: Antagonism of the spike and wave discharges induced by phenytoin in epileptic rats. The class given is in vivo, rat. On the procedure: as §1
3-Aminopropyl(diethoxymethyl)phosphinic acid: Antagonism of the "spike and wave" discharges induced by phenytoin. 3-Aminopropyl(diethoxymethyl)phosphinic acid was administered at time 0, and 20 mg/kg of phenytoin were administered at time 40, in each case i.p..

In assay [3] the test system is "spike and wave" discharges induced by Vigabatrin® in epileptic rats. The experiment in a line: Antagonism of the spike and wave discharges induced by Vigabatrin in epileptic rats. The class given is in vivo, rat. How it is done: as §1
3-Aminopropyl(diethoxymethyl)phosphinic acid: Antagonism of the "spike and wave" discharges induced by Vigabatrin®.3-Aminopropyl(diethoxymethyl)phosphinic acid was administered at time 0, and 20 mg/kg of Vigabatrin® were administered at time 160, in each case i.p..

In assay [4] the test system is "spike and wave" discharges in epileptic rats (male Wistar rats of the Strasbourg colony). Kind of assay: Inhibition of spike and wave discharges in epileptic rats (absence epilepsy model). The note with it: epileptic rat model; for minimal effective dose: dose-dependent, read-out: dose that reduces the spike and wave discharges. The class given is in vivo. From the text: Synchronous "spike and wave" discharges (SWD; frontopariental cortex; 7-8 Hz; 300-1000 μV, duration 0.5 to 40 s, mean value=6.0±3.4 s) and frequently myoclonia facialis accompany a cessation of behaviour. These absence-like conditions occur spontaneously and repeatedly. […] In contrast, a strain could be reared in which 100% of the rats are SWD-free (control rats). This pharmacological model is described in Vergnes M., Marescaux C., Micheletti G., Reis J., Depaulis A., Rumbach L. and Warter J. M., Neurosci. Lett. 33. 97-101 (1982).
In this model, for example, the clinically used anti-epileptics ethosuximide, diazepam, trimethadione and sodium valproate in doses≥25 mg/kg (ethosuximide),≥0.5 mg/kg (diazepam) and≥50 mg/kg (trimethadione and sodium valproate) reduce the spike and wave discharges in dose-dependent manner. […] Phenobarbital is effective at from 2.5 to 10 mg/kg and is ineffective at 20 mg/kg. The action of these anti-epileptics on the crises in rats and absences in humans supports the hypothesis that this animal model represents a pharmacological model for absence epilepsy. Its predictive value appears to be at least as good as that of other customary animal models.
The action of GABAB -antagonists was tested on male Wistar rats (300-400 g) of the Strasbourg colony. […] The rats received water and food ad libidum, and the light/dark cycle was 12/12 hours. The rats were anaesthetised with pentobarbital (40 mg/kg i.p.) and implanted bilaterally with 4 stainless steel electrodes (two in the frontal cortex and two in the parietal cortex). The rats were used for experiments no sooner than one week after the operation.
The rats, which were freely mobile, were accommodated in a Plexiglass cage (17×17×28 cm) (one rat per cage), and, after a 15-minute period for adaptation to the new surroundings, the EEG was recorded over a period of 20 minutes (reference period). The reference line for the particular test series is thus obtained. A GABAB -antagonist was then administered and the EEG was recorded over a period of from 120 to 180 minutes. The rats were kept under constant observation during this period and prevented from falling asleep by gentle manual contact.
The test compound was dissolved in 0.9% sodium chloride solution and injected in doses of 50, 100, 200 and 400 mg/kg i.p.. Alternatively, the test compound may be administered in a polyethylene glycol, such as Tween® 80, (2 drops/10 ml of suspension of the test compound in 0.9% sodium chloride solution; the suspension is homogenised at 40° for 10 minutes by means of ultrasound, injection volume: 2 ml/kg) i.p. or by means of a stomach probe p.o.. Test compounds that are soluble with difficulty are advantageously administered in solution in a mixture of dimethyl sulfoxide (not more than 10% by volume) and 0.9% sodium chloride solution or in 45% aqueous hydroxypropyl-β-cyclodextrin solution. Each animal is treated with all doses in a randomised sequence. The time between two treatments should be at least 5 days. The mean values ±SEM of the sum total duration of the "spike and wave" discharges of 6 rats over a period of 20 minutes are recorded.
The sum total duration of the spike and wave discharges (in seconds) is measured for each 20-minute period of the EEG recording. Comparisons between the treatment and the reference period are carried out by means of non-parametric variance analysis of the groups concerned (Friedman test). The control group and the treated groups are compared by means of the Wilcoxon test only when a significant difference between the two groups is found in the Friedmann test. The significances of the differences according to Wilcoxon between doses marked by an asteriks and dose 0 corresponds to p<0,005.

For assay [5], the system named is "epilepsy-like" discharges of pyramidal cells. Kind of assay: Penicillin-induced epileptic hippocampus section preparation (antagonism to baclofen). Type of assay: cell-based. How it is done:
The novel GABAB -antagonists according to the invention interact at the GABAB -receptor with IC50 values of approximately 10^-8 M (moles/l) and above in cerebral cortex membranes of rats. […] The compounds according to the invention act as an antagonist to baclofen action at concentrations of from approximately 10 to approximately 100 μM (micromoles/liter). […] At doses of approximately 30 mg/kg, antagonism to the muscle-relaxing action of baclofen occurs, which is measured in the Rotarod model.

Turning to `CCOC(OCC)P(=O)(O)CCCN` [3-aminopropyl(diethoxymethyl)phosphinic acid], the “sum total duration of the spike and wave discharges” value (“sum total duration” for short) in assay [1] (test compound 200 mg/kg i.p. at time 0, carbamazepine 20 mg/kg i.p. at time 40, period 0-20 min) was 353 ± 53 s; in assay [1] (test compound 200 mg/kg i.p. at time 0, carbamazepine 20 mg/kg i.p. at time 40, period 20-40 min) it was 178 ± 37 s; in assay [1] (test compound 200 mg/kg i.p. at time 0, carbamazepine 20 mg/kg i.p. at time 40, period 40-60 min), 173 ± 78 s; in assay [1] (test compound 200 mg/kg i.p. at time 0, carbamazepine 20 mg/kg i.p. at time 40, period 60-80 min), 70 ± 64 s; in assay [1] (test compound 200 mg/kg i.p. at time 0, carbamazepine 20 mg/kg i.p. at time 40, period 80-100 min) it was 18 ± 17 s; in assay [1] (test compound 400 mg/kg i.p. at time 0, carbamazepine 20 mg/kg i.p. at time 40, period 0-20 min), 115 ± 43 s. Further, the “sum total duration” value turned out to be 93 ± 71 s in assay [1] (test compound 400 mg/kg i.p. at time 0, carbamazepine 20 mg/kg i.p. at time 40, period 20-40 min); 23 ± 14 s in assay [1] (test compound 400 mg/kg i.p. at time 0, carbamazepine 20 mg/kg i.p. at time 40, period 40-60 min); 29 ± 29 s in assay [1] (test compound 400 mg/kg i.p. at time 0, carbamazepine 20 mg/kg i.p. at time 40, period 60-80 min); 9 ± 9 s in assay [1] (test compound 400 mg/kg i.p. at time 0, carbamazepine 20 mg/kg i.p. at time 40, period 80-100 min); 394 ± 87 s in assay [2] (test compound 200 mg/kg i.p. at time 0, phenytoin 20 mg/kg i.p. at time 40, period 0-20 min); 172 ± 64 s in assay [2] (test compound 200 mg/kg i.p. at time 0, phenytoin 20 mg/kg i.p. at time 40, period 20-40 min). Also, the “sum total duration” value in assay [2] (test compound 200 mg/kg i.p. at time 0, phenytoin 20 mg/kg i.p. at time 40, period 40-60 min) came out at 124 ± 85 s; in assay [2] (test compound 200 mg/kg i.p. at time 0, phenytoin 20 mg/kg i.p. at time 40, period 60-80 min), 239 ± 70 s; in assay [2] (test compound 200 mg/kg i.p. at time 0, phenytoin 20 mg/kg i.p. at time 40, period 80-100 min), 95 ± 37 s; in assay [2] (test compound 400 mg/kg i.p. at time 0, phenytoin 20 mg/kg i.p. at time 40, period 0-20 min), 139 ± 61 s; in assay [2] (test compound 400 mg/kg i.p. at time 0, phenytoin 20 mg/kg i.p. at time 40, period 20-40 min), 48 ± 40 s; in assay [2] (test compound 400 mg/kg i.p. at time 0, phenytoin 20 mg/kg i.p. at time 40, period 40-60 min) it was 31 ± 31 s. Also, the “sum total duration” value in assay [2] (test compound 400 mg/kg i.p. at time 0, phenytoin 20 mg/kg i.p. at time 40, period 60-80 min) stood at 56 ± 53 s; in assay [2] (test compound 400 mg/kg i.p. at time 0, phenytoin 20 mg/kg i.p. at time 40, period 80-100 min) it was 42 ± 39 s; in assay [3] (test compound 200 mg/kg i.p. at time 0, Vigabatrin 20 mg/kg i.p. at time 160, period 240-260 min), 213 ± 52 s; in assay [3] (test compound 200 mg/kg i.p. at time 0, Vigabatrin 20 mg/kg i.p. at time 160, period 260-280 min), 249 ± 57 s; in assay [3] (test compound 400 mg/kg i.p. at time 0, Vigabatrin 20 mg/kg i.p. at time 160, period 240-260 min), 44 ± 13 s; in assay [3] (test compound 400 mg/kg i.p. at time 0, Vigabatrin 20 mg/kg i.p. at time 160, period 260-280 min), 28 ± 8 s.

`CCC1(c2ccccc2)C(=O)NC(=O)NC1=O` [Phenobarbital]: the “effect on the spike and wave discharges (in words)” value (“effect … (in words)” for short) in assay [4] (20 mg/kg) is listed as “ineffective”.

As to `C=CC(N)CCC(=O)O` (stereo not shown) [Vigabatrin®, Vigabatrin, reference compound], the “sum total duration” value in assay [3] (Vigabatrin 20 mg/kg i.p. at time 160 alone (antagonist dose 0), period 240-260 min) worked out at 875 ± 63 s; in assay [3] (Vigabatrin 20 mg/kg i.p. at time 160 alone (antagonist dose 0), period 260-280 min), 938 ± 65 s.

Consider `NCC(CC(=O)O)c1ccc(Cl)cc1` (stereo not shown) [baclofen], for which the “concentration that inhibits epilepsy-like discharges of pyramidal cells” value in assay [5] is 6 µM.

Take `NC(=O)N1c2ccccc2C=Cc2ccccc21` [carbamazepine, reference compound]: the “effect … (in words)” value in assay [4] is on record as “ineffective or make the attacks worse at high doses”. Besides, the “sum total duration” value in assay [1] (carbamazepine 20 mg/kg i.p. at time 40 alone (antagonist dose 0), period 40-60 min) was 636 ± 43 s; in assay [1] (carbamazepine 20 mg/kg i.p. at time 40 alone (antagonist dose 0), period 60-80 min), 669 ± 14 s; in assay [1] (carbamazepine 20 mg/kg i.p. at time 40 alone (antagonist dose 0), period 80-100 min) it was 675 ± 75 s.

For the compound `CN1C(=O)CN=C(c2ccccc2)c2cc(Cl)ccc21` [diazepam], in assay [4], the minimal effective dose was not below 0.5 mg/kg.

For the compound `CCC1(C)CC(=O)NC1=O` (stereo not shown) [ethosuximide], the minimal effective dose in assay [4] is not below 25 mg/kg.

On to `O=C1NC(=O)C(c2ccccc2)(c2ccccc2)N1` [phenytoin, reference compound], for which the “effect … (in words)” value in assay [4] was “ineffective or make the attacks worse at high doses”. Besides, the “sum total duration” value in assay [2] (phenytoin 20 mg/kg i.p. at time 40 alone (antagonist dose 0), period 40-60 min) was found to be 555 ± 24 s; in assay [2] (phenytoin 20 mg/kg i.p. at time 40 alone (antagonist dose 0), period 60-80 min), 658 ± 27 s; in assay [2] (phenytoin 20 mg/kg i.p. at time 40 alone (antagonist dose 0), period 80-100 min), 562 ± 76 s.

`CCCC(CCC)C(=O)[O-].[Na+]` [sodium valproate]: in assay [4], the minimal effective dose was not below 50 mg/kg.

In the case of `CN1C(=O)OC(C)(C)C1=O` [trimethadione], in assay [4], the minimal effective dose is not below 50 mg/kg.
